Experimental data from US20240138411A1, “METHOD OF […] OF SUGARCANE” (CORTEVA AGRISCIENCE LLC, priority 2021, published 2024).

Tested on: sugarcane
Assay: Sugarcane flowering inhibition field trials, floral induction rated on UFSCar scale
Assay type: in vivo
Method: In order to explore the activity of florpyrauxifen as flowering inhibitor in sugarcane, field studies were carried out. Florpyrauxifen-benzyl was tested at rates from 2 to 20 grams active ingredient per hectare (g ai/ha) and compared to Ethrel® 720 (Bayer), the standard treatment. The flowering inhibition effect was assessed by checking the floral induction in sugarcane through the percentage scale recommended by UFSCar (Federal University of Sao Carlos, Sao Paulo, Brazil).
Four trials were carried out in sugarcane where florpyrauxifen-benzyl (Rinskor®), applied at a rate of 2 to 20 g ai/ha, was compared to ethephon (Ethrel® 720) applied at a rate of 475 g ai/ha. Control plots of untreated sugarcane were also evaluated. Rinskor® and Ethrel® 720 were diluted in water and a single application for each study (backpack sprayer) was performed delivering 50 L of spray solution per ha at the reproductive stage of sugarcane and at a maximum 150 days before harvest. The activity of florpyrauxifen-benzyl as a flowering inhibitor was measured via assessments (Scale of flowering inhibition—see chart 1) performed at 0, 14, 30, 45, 60, 75, 90, 120, 150 days after application, or up to harvest time. The assessments were measured in sugarcane stems, rating the flowering induction according to the UFSCar scale shown below. Significance of treatment effect was evaluated with F-approximate test (α=0.1) and least square means from different treatments were compared with Tukey's test.

COc1c(Cl)ccc(-c2nc(C(=O)OCc3ccccc3)c(Cl)c(N)c2F)c1F [Rinskor, florpyrauxifen-benzyl]
% Referring to Scale (Table 1, 120 DAA, 20 g ai/ha): 12.8%
Frequency 1/1 (0%) (Table 1, 120 DAA, 20 g ai/ha): 15.0%
Frequency 2/1 (15%) (Table 1, 120 DAA, 20 g ai/ha): 85.0%
Frequency 3/1 (30%) (Table 1, 120 DAA, 20 g ai/ha): 0.0%
Frequency 4/1 (50%) (Table 1, 120 DAA, 20 g ai/ha): 0.0%
Frequency 4/2 (80%) (Table 1, 120 DAA, 20 g ai/ha): 0.0%
Frequency 4/3 (90%) (Table 1, 120 DAA, 20 g ai/ha): 0.0%
Frequency 4/4 (100%) (Table 1, 120 DAA, 20 g ai/ha): 0.0%
% Referring to Scale (Table 2, 75 DAA, 2 g ai/ha): 1.1%
Frequency 1/1 (0%) (Table 2, 75 DAA, 2 g ai/ha): 92.5%
Frequency 2/1 (15%) (Table 2, 75 DAA, 2 g ai/ha): 7.5%
Frequency 3/1 (30%) (Table 2, 75 DAA, 2 g ai/ha): 0.0%
Frequency 4/1 (50%) (Table 2, 75 DAA, 2 g ai/ha): 0.0%
Frequency 4/2 (80%) (Table 2, 75 DAA, 2 g ai/ha): 0.0%
Frequency 4/3 (90%) (Table 2, 75 DAA, 2 g ai/ha): 0.0%
Frequency 4/4 (100%) (Table 2, 75 DAA, 2 g ai/ha): 0.0%
% Referring to Scale (Table 2, 75 DAA, 5 g ai/ha): 0.8%
Frequency 1/1 (0%) (Table 2, 75 DAA, 5 g ai/ha): 95.0%
Frequency 2/1 (15%) (Table 2, 75 DAA, 5 g ai/ha): 5.0%
Frequency 3/1 (30%) (Table 2, 75 DAA, 5 g ai/ha): 0.0%
Frequency 4/1 (50%) (Table 2, 75 DAA, 5 g ai/ha): 0.0%
Frequency 4/2 (80%) (Table 2, 75 DAA, 5 g ai/ha): 0.0%
Frequency 4/3 (90%) (Table 2, 75 DAA, 5 g ai/ha): 0.0%
Frequency 4/4 (100%) (Table 2, 75 DAA, 5 g ai/ha): 0.0%
% Referring to Scale (Table 2, 75 DAA, 7 g ai/ha): 0.8%
Frequency 1/1 (0%) (Table 2, 75 DAA, 7 g ai/ha): 95.0%
Frequency 2/1 (15%) (Table 2, 75 DAA, 7 g ai/ha): 5.0%
Frequency 3/1 (30%) (Table 2, 75 DAA, 7 g ai/ha): 0.0%
Frequency 4/1 (50%) (Table 2, 75 DAA, 7 g ai/ha): 0.0%
Frequency 4/2 (80%) (Table 2, 75 DAA, 7 g ai/ha): 0.0%
Frequency 4/3 (90%) (Table 2, 75 DAA, 7 g ai/ha): 0.0%
Frequency 4/4 (100%) (Table 2, 75 DAA, 7 g ai/ha): 0.0%
% Referring to Scale (Table 2, 75 DAA, 10 g ai/ha): 0.4%
Frequency 1/1 (0%) (Table 2, 75 DAA, 10 g ai/ha): 97.5%
Frequency 2/1 (15%) (Table 2, 75 DAA, 10 g ai/ha): 2.5%
Frequency 3/1 (30%) (Table 2, 75 DAA, 10 g ai/ha): 0.0%
Frequency 4/1 (50%) (Table 2, 75 DAA, 10 g ai/ha): 0.0%
Frequency 4/2 (80%) (Table 2, 75 DAA, 10 g ai/ha): 0.0%
Frequency 4/3 (90%) (Table 2, 75 DAA, 10 g ai/ha): 0.0%
Frequency 4/4 (100%) (Table 2, 75 DAA, 10 g ai/ha): 0.0%
% Referring to Scale (Table 2, 75 DAA, 15 g ai/ha): 1.1%
Frequency 1/1 (0%) (Table 2, 75 DAA, 15 g ai/ha): 92.5%
Frequency 2/1 (15%) (Table 2, 75 DAA, 15 g ai/ha): 7.5%
Frequency 3/1 (30%) (Table 2, 75 DAA, 15 g ai/ha): 0.0%
Frequency 4/1 (50%) (Table 2, 75 DAA, 15 g ai/ha): 0.0%
Frequency 4/2 (80%) (Table 2, 75 DAA, 15 g ai/ha): 0.0%
Frequency 4/3 (90%) (Table 2, 75 DAA, 15 g ai/ha): 0.0%
Frequency 4/4 (100%) (Table 2, 75 DAA, 15 g ai/ha): 0.0%
% Referring to Scale (Table 2, 75 DAA, 20 g ai/ha): 0.8%
Frequency 1/1 (0%) (Table 2, 75 DAA, 20 g ai/ha): 95.0%
Frequency 2/1 (15%) (Table 2, 75 DAA, 20 g ai/ha): 5.0%
Frequency 3/1 (30%) (Table 2, 75 DAA, 20 g ai/ha): 0.0%
Frequency 4/1 (50%) (Table 2, 75 DAA, 20 g ai/ha): 0.0%
Frequency 4/2 (80%) (Table 2, 75 DAA, 20 g ai/ha): 0.0%
Frequency 4/3 (90%) (Table 2, 75 DAA, 20 g ai/ha): 0.0%
Frequency 4/4 (100%) (Table 2, 75 DAA, 20 g ai/ha): 0.0%
% Referring to Scale (Table 2, 90 DAA, 2 g ai/ha): 60.3%
Frequency 1/1 (0%) (Table 2, 90 DAA, 2 g ai/ha): 0.0%
Frequency 2/1 (15%) (Table 2, 90 DAA, 2 g ai/ha): 0.0%
Frequency 3/1 (30%) (Table 2, 90 DAA, 2 g ai/ha): 20.0%
Frequency 4/1 (50%) (Table 2, 90 DAA, 2 g ai/ha): 32.5%
Frequency 4/2 (80%) (Table 2, 90 DAA, 2 g ai/ha): 47.5%
Frequency 4/3 (90%) (Table 2, 90 DAA, 2 g ai/ha): 0.0%
Frequency 4/4 (100%) (Table 2, 90 DAA, 2 g ai/ha): 0.0%
% Referring to Scale (Table 2, 90 DAA, 5 g ai/ha): 43.5%
Frequency 1/1 (0%) (Table 2, 90 DAA, 5 g ai/ha): 0.0%
Frequency 2/1 (15%) (Table 2, 90 DAA, 5 g ai/ha): 0.0%
Frequency 3/1 (30%) (Table 2, 90 DAA, 5 g ai/ha): 32.5%
Frequency 4/1 (50%) (Table 2, 90 DAA, 5 g ai/ha): 67.5%
Frequency 4/2 (80%) (Table 2, 90 DAA, 5 g ai/ha): 0.0%
Frequency 4/3 (90%) (Table 2, 90 DAA, 5 g ai/ha): 0.0%
Frequency 4/4 (100%) (Table 2, 90 DAA, 5 g ai/ha): 0.0%
% Referring to Scale (Table 2, 90 DAA, 7 g ai/ha): 44.8%
Frequency 1/1 (0%) (Table 2, 90 DAA, 7 g ai/ha): 0.0%
Frequency 2/1 (15%) (Table 2, 90 DAA, 7 g ai/ha): 0.0%
Frequency 3/1 (30%) (Table 2, 90 DAA, 7 g ai/ha): 37.5%
Frequency 4/1 (50%) (Table 2, 90 DAA, 7 g ai/ha): 55.0%
Frequency 4/2 (80%) (Table 2, 90 DAA, 7 g ai/ha): 7.5%
Frequency 4/3 (90%) (Table 2, 90 DAA, 7 g ai/ha): 0.0%
Frequency 4/4 (100%) (Table 2, 90 DAA, 7 g ai/ha): 0.0%
% Referring to Scale (Table 2, 90 DAA, 10 g ai/ha): 37.4%
Frequency 1/1 (0%) (Table 2, 90 DAA, 10 g ai/ha): 0.0%
Frequency 2/1 (15%) (Table 2, 90 DAA, 10 g ai/ha): 7.5%
Frequency 3/1 (30%) (Table 2, 90 DAA, 10 g ai/ha): 50.0%
Frequency 4/1 (50%) (Table 2, 90 DAA, 10 g ai/ha): 42.5%
Frequency 4/2 (80%) (Table 2, 90 DAA, 10 g ai/ha): 0.0%
Frequency 4/3 (90%) (Table 2, 90 DAA, 10 g ai/ha): 0.0%
Frequency 4/4 (100%) (Table 2, 90 DAA, 10 g ai/ha): 0.0%
% Referring to Scale (Table 2, 90 DAA, 15 g ai/ha): 39.8%
Frequency 1/1 (0%) (Table 2, 90 DAA, 15 g ai/ha): 0.0%
Frequency 2/1 (15%) (Table 2, 90 DAA, 15 g ai/ha): 15.0%
Frequency 3/1 (30%) (Table 2, 90 DAA, 15 g ai/ha): 25.0%
Frequency 4/1 (50%) (Table 2, 90 DAA, 15 g ai/ha): 60.0%
Frequency 4/2 (80%) (Table 2, 90 DAA, 15 g ai/ha): 0.0%
Frequency 4/3 (90%) (Table 2, 90 DAA, 15 g ai/ha): 0.0%
Frequency 4/4 (100%) (Table 2, 90 DAA, 15 g ai/ha): 0.0%
% Referring to Scale (Table 2, 90 DAA, 20 g ai/ha): 46.0%
Frequency 1/1 (0%) (Table 2, 90 DAA, 20 g ai/ha): 0.0%
Frequency 2/1 (15%) (Table 2, 90 DAA, 20 g ai/ha): 5.0%
Frequency 3/1 (30%) (Table 2, 90 DAA, 20 g ai/ha): 30.0%
Frequency 4/1 (50%) (Table 2, 90 DAA, 20 g ai/ha): 52.5%
Frequency 4/2 (80%) (Table 2, 90 DAA, 20 g ai/ha): 12.5%
Frequency 4/3 (90%) (Table 2, 90 DAA, 20 g ai/ha): 0.0%
Frequency 4/4 (100%) (Table 2, 90 DAA, 20 g ai/ha): 0.0%
% Referring to Scale (Table 2, 120 DAA, 2 g ai/ha): 95.8%
Frequency 1/1 (0%) (Table 2, 120 DAA, 2 g ai/ha): 0.0%
Frequency 2/1 (15%) (Table 2, 120 DAA, 2 g ai/ha): 0.0%
Frequency 3/1 (30%) (Table 2, 120 DAA, 2 g ai/ha): 0.0%
Frequency 4/1 (50%) (Table 2, 120 DAA, 2 g ai/ha): 0.0%
Frequency 4/2 (80%) (Table 2, 120 DAA, 2 g ai/ha): 5.0%
Frequency 4/3 (90%) (Table 2, 120 DAA, 2 g ai/ha): 32.5%
Frequency 4/4 (100%) (Table 2, 120 DAA, 2 g ai/ha): 62.5%
% Referring to Scale (Table 2, 120 DAA, 5 g ai/ha): 96.5%
